For assay [1], the system named is HaloTag-fused proteins of interest (POI). Description: T-REX targeting efficiency by Click coupling, in-gel fluorescence. The settings on record: equation of Step 40A (ix). The format is cell-based. As for the experimental part: (i) For mammalian cells, add 15 μL freshly prepared lysis buffer (50 mM Hepes pH 7.6, 0.3 mM TCEP and 1% Nonidet p-40) to mammalian cell pellets from Step 2A above and subject to 3 cycles of freeze-thaw. For E. coli cells, resuspend cell pellet in 100 μL lysis buffer consisting of 50 mM HEPES pH 7.6, 2 mM TCEP, 1% Nonidet p-40, 150 μg/mL Lysozyme, 5 μg/mL DNAse-I. Incubate for 20 min at room temperature with agitation. For mammalian cells make sure the cells are resuspended well in lysis buffer.
(iv) Dilute a portion of the clarified lysate to 1 mg/mL in a final volume of ˜25 μL containing 50 mM Hepes pH 7.6, 0.3 mM TCEP, and 0.2 mg/mL His6-TEV-S219V. Incubate at 37° C. for 45 min. The optimal concentration of lysate protein is ˜1.0 mg/mL. High concentration of lysate protein causes failure of Click coupling. Precipitates may appear upon adding His6-TEV-S219V. […]
(vii) Upon completion of the gel-electrophoresis, rinse the gel with ddH2O 20 mL (×2, 5 min) and analyze for Cy5 signal using a ChemiDoc-MP imaging system (Bio-Rad) (see Equipment Setup). Any alternative fluorescence gel imager platforms can be used in this step. […]
(x) Bio-Rad Image Lab™ software is used to quantitate the intensities of Cy5 signal and western blot signal. […] Click on “Analysis table” to generate the quantitated signal intensities corresponding to selected bands. […]

The subject of another assay is NF-κB-signaling (Ube2V1). Description: NF-κB dual luciferase reporter assay after T-REX on Halo-Ube2V1. The assay is classed as cell-based, human. Particulars: T-REX HNEylation of Ube2V1, coexpression of Ube2N. The procedure: 1.5-1.6×10^5 HEK 293T cells were seeded in each well of a 48-well plate. 24 h later, the cells were transfected with 120 ng of the designated HaloTag fusion gene plasmid and 120 ng of NF-kB-Firefly luciferase: pCMV-Renilla luciferase (40:1) mix, using TransIT-2020 transfection agent. 24 h post-transfection, cells were treated with 25 μM Ht-PreHNE or vehicle (corresponding volume of DMSO alone) for 2.5 h, rinsed three times and irradiated with 365 nm UV light for 10 min. The cells were incubated for a further 8 h. For dual luciferase assay, cells in each well were gently washed with 1×DPBS and lysed in 65 μL of 1× passive lysis buffer containing in final concentrations 25 mM Tris (pH 7.8), 2 mM 1,2-CDTA, 2 mM DTT, 1 mg/mL BSA, 1% Triton X-100, and 10% Glycerol. 20 μL of the lysate was transferred to a white opaque 96-well plate (Corning). Firefly luciferase was read after adding 50 μL Firefly substrate (75 mM HEPES pH 8.0, 4 mM MgSO4, 20 mM DTT, 0.1 mM EDTA, 0.53 mM ATP, 0.27 mM Coenzyme-A, 0.47 mM D-Luciferin Firefly). Subsequently, 50 μL of Stop and Glow substrate (7.5 mM sodium acetate pH 5.0, 400 mM sodium sulfate, 10 mM CDTA, 15 mM sodium pyrophosphate, 0.025 mM APMBT, 5.5 μM Coelenterazine) was added and Renilla luciferase activity was measured.
For orientation: Reporter assays use an easily measured gene product as a stand-in for the process of interest.

In the case of `CCCCCC(O)/C=C/C=O` (centres unmarked) [HNE, 4-hydroxynonenal], the targeting efficiency in assay [1] is given as 10-40%. Further, the “upregulation in NF-κB-signaling relative to all controls” value with NF-κB-signaling (Ube2V1) is 3 fold.

The record behind these values is patent US11506670B2, “Method of genome-wide direct identification of electrophile-sensing targets” (Cornell University, priority 2018, dated 2022).
